# Measurements published in publication PMC6934184, “Selective DNA-PKcs inhibition extends the therapeutic index of localized radiotherapy and chemotherapy” (The Journal of Clinical Investigation, 2019).
# Target: T1, STK3 (MST2) (Homo sapiens, UniProt Q13188)
# T1 construct: purchased Thermo Fisher Scientific (Life Technologies) SelectScreen
# Experiment: SelectScreen Z'LYTE
# Format: biochemical
# In short: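 SelectScreen broad panel; activity (Z'LYTE, Adapta) plus binding formats. ATP: Km app for CSF1R Z'LYTE; 10 for CAMK1 Adapta. Readout = % per kinase.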
# T1 sequence (Q13188 whole entry): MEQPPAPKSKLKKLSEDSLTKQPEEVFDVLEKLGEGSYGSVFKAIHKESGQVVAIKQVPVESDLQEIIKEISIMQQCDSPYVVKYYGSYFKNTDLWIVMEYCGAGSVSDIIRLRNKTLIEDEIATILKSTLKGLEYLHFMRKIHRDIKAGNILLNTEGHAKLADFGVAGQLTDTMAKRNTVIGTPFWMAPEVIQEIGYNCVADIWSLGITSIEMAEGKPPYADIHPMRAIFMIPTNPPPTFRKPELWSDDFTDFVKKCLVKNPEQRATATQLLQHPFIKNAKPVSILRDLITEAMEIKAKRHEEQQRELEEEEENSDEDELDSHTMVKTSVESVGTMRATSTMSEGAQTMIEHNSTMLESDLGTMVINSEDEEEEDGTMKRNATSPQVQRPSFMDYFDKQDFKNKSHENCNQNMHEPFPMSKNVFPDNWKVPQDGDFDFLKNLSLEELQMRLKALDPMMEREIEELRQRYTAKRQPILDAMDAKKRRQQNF
smiles,measurement,value
CN(C(=O)CN1CCOCC1)c1ccc2sc3c(-c4cccc5c(=O)cc(N6CC7CCC(C6)O7)oc45)cccc3c2c1 [NU5455],inhibition at 1 µM,-10.3%
